According to patent US5565616A (priority 1994, dated 1996):
Where two headings read alike, the source gives them in different places.

Tests used:
[1] = Sample pH before SCWO, after five-minute reactor residence time and after reactor cool down; assay type: physicochemical
Protocol: Fourteen tests were conducted to determine the by-product distribution of DMMP during SCWO at different oxygen concentrations in the presence of additives. Test conditions and procedures were the same as described in Example 1. Additive concentrations were based on achieving a 1:1 molar ratio of Na^+ ions to DMMP. Based on an initial concentration of DMMP of 10,000 mg/L, the initial concentrations of each additive were 3,224 mg/L for NaOH, 4,271 mg/L for Na2 CO3 and 15.4 g/L for Na2 B4 O7 (as Na2 B4 O7.10H2 O).
The pH of each sample was measured within one hour of sample collection. The presence of the additive affected the pH of the sample collected after a five minute reactor residence time only slightly. Since the pH of the initial solution had increased upon addition of the additive, it was expected that the pH of the sample collected at supercritical conditions would also increase. However, the effect was only slightly obvious due most likely to the precipitation of the additives at supercritical conditions. After reactor cool down, the pH of samples collected after cool down increased in the presence of the additive. The pH increase which occurred between the sample collected after five minutes reactor residence time and after reactor cool down was a result of the dissolution of precipitated additive. It is believed that sodium hydroxide, sodium carbonate and sodium borate dissolved after reactor cool down and neutralized the acidic solution which was observed after the five minute reactor residence time.

[2] = From the text: Calculations are based on the reported first-order reaction kinetic model
[3] = cited from earlier work
[4] = cited from earlier work; for Pyridine Conversion: 27.6 MPa
[5] = first-order oxidation, 24.6 MPa, 530-700 °C

With `O.O.O.O.O.O.O.O.O.O.[Na+].[Na+].[O-]B1OB2OB([O-])OB(O1)O2` [Na2 B4 O7, sodium borate] the “pH, 5 Min. Reactor Resid. Time” value ([1]; hydrolysis) was 2.8, the “pH, After Reactor Cool Down” value ([1]; hydrolysis) was 7.0 and the “pH, Initial” value ([1]; hydrolysis) was 9. The “pH, 5 Min. Reactor Resid. Time” value ([1]; partial oxidation) was 3.2, the “pH, After Reactor Cool Down” value ([1]; partial oxidation) was 7.3 and the “pH, Initial” value ([1]; partial oxidation) was 9.
For `N` [ammonia], the “Reactor Residence Time Required to Achieve 9% Conversion” value ([2]; 400 °C) was 774 min, the “Reactor Residence Time Required to Achieve 90% Conversion” value ([2]; 400 °C) was 18888 min and the “Reactor Residence Time Required to Achieve 99% Conversion” value ([2]; 400 °C) was 37775 min. The “Reactor Residence Time Required to Achieve 99.9% Conversion” value ([2]; 400 °C) was 56663 min, the “Reactor Residence Time Required to Achieve 99.99% Conversion” value ([2]; 400 °C) was 75551 min and the “Reactor Residence Time Required to Achieve 9% Conversion” value ([2]; 450 °C) was 111 min. The “Reactor Residence Time Required to Achieve 90% Conversion” value ([2]; 450 °C) was 2710 min, the “Reactor Residence Time Required to Achieve 99% Conversion” value ([2]; 450 °C) was 5421 min and the “Reactor Residence Time Required to Achieve 99.9% Conversion” value ([2]; 450 °C) was 8131 min. The “Reactor Residence Time Required to Achieve 99.99% Conversion” value ([2]; 450 °C) was 10842 min, the “Reactor Residence Time Required to Achieve 9% Conversion” value ([2]; 500 °C) was 20 min and the “Reactor Residence Time Required to Achieve 90% Conversion” value ([2]; 500 °C) was 500 min. For the same molecule, the “Reactor Residence Time Required to Achieve 99% Conversion” value ([2]; 500 °C) was 1000 min, the “Reactor Residence Time Required to Achieve 99.9% Conversion” value ([2]; 500 °C) was 1500 min and the “Reactor Residence Time Required to Achieve 99.99% Conversion” value ([2]; 500 °C) was 2000 min. The “Reactor Residence Time Required to Achieve 9% Conversion” value ([2]; 550 °C) was 5 min, the “Reactor Residence Time Required to Achieve 90% Conversion” value ([2]; 550 °C) was 113 min and the “Reactor Residence Time Required to Achieve 99% Conversion” value ([2]; 550 °C) was 227 min. For the same molecule, the “Reactor Residence Time Required to Achieve 99.9% Conversion” value ([2]; 550 °C) was 340 min, the “Reactor Residence Time Required to Achieve 99.99% Conversion” value ([2]; 550 °C) was 453 min and the “Reactor Residence Time Required to Achieve 9% Conversion” value ([2]; 600 °C) was 0.1 min. The “Reactor Residence Time Required to Achieve 90% Conversion” value ([2]; 600 °C) was 3 min, the “Reactor Residence Time Required to Achieve 99% Conversion” value ([2]; 600 °C) was 7 min and the “Reactor Residence Time Required to Achieve 99.9% Conversion” value ([2]; 600 °C) was 10 min. The “Reactor Residence Time Required to Achieve 99.99% Conversion” value ([2]; 600 °C) was 13 min, the “reactor residence time required to convert 10% ammonia” value ([2]; below 450 °C) was “at least two hours” and the activation energy [3, 5] was 37.5 kcal/mol. For the same molecule, the pre-exponential factor [3, 5] was 3.16e+06 s⁻¹ and the “temperature at which oxidation rate becomes appreciable” value ([3]; supercritical water) was “greater than 550 °C”.
In the case of `c1ccncc1` [pyridine], the “Pyridine Conversion” value ([4]; Test 513: 522 °C, 6.6 sec, 1990 mg/L, O2 0.024 mole/L) is given as 74%, the “Pyridine Conversion” value ([4]; Test 516: 499 °C, 7.1 sec, 1990 mg/L, O2 0.026 mole/L) is given as 66% and the “Pyridine Conversion” value ([4]; Test 524: 499 °C, 7.1 sec, 3050 mg/L, O2 0.031 mole/L) is given as 75%. For the same molecule, the “Pyridine Conversion” value ([4]; Test 525: 475 °C, 7.8 sec, 1990 mg/L, O2 0.029 mole/L) was 25%, the “Pyridine Conversion” value ([4]; Test 529: 451 °C, 8.8 sec, 3050 mg/L, O2 0.038 mole/L) was 6% and the “Pyridine Conversion” value ([4]; Test 541: 522 °C, 6.6 sec, 3050 mg/L, O2 0.027 mole/L) was 94%. The “Pyridine Conversion” value ([4]; Test 542: 474 °C, 7.8 sec, 3050 mg/L, O2 0.035 mole/L) was 22%, the “Pyridine Conversion” value ([4]; Test 661: 527 °C, 3.8 sec, 3530 mg/L, O2 0.010 mole/L) was 55% and the “Pyridine Conversion” value ([4]; Test 668: 525 °C, 3.9 sec, 3530 mg/L, O2 0.014 mole/L) was 53%. For the same molecule, the “Pyridine Conversion” value ([4]; Test 676: 527 °C, 3.8 sec, 3530 mg/L, O2 0.020 mole/L) was 68% and the pyridine converted ([4]; at 524 °C (Test No. 524)) was 75%.
In the case of sodium hydroxide [NaOH], the “pH, 5 Min. Reactor Resid. Time” value ([1]; hydrolysis) is reported as 2.1, the “pH, After Reactor Cool Down” value ([1]; hydrolysis) is reported as 5.3 and the “pH, Initial” value ([1]; hydrolysis) is reported as 12.3. For the same molecule, the “pH, 5 Min. Reactor Resid. Time” value ([1]; oxidation) was 3.6, the “pH, After Reactor Cool Down” value ([1]; oxidation) was 5.0 and the “pH, Initial” value ([1]; oxidation) was 12.3. The “pH, 5 Min. Reactor Resid. Time” value ([1]; partial oxidation) was 2.2, the “pH, After Reactor Cool Down” value ([1]; partial oxidation) was 6.0 and the “pH, Initial” value ([1]; partial oxidation) was 12.3.
